Laboratory results taken from PubChem BioAssay AID1963986 (Molecular Pharmacology Branch, DTP, NCI, 2024).

System: 171881-019-R-J1-PDC tumor spheroid viability
Assay: Anticancer human tumor 171881-019-R-J1-PDC patient-derived invasive breast carcinoma cell line growth inhibition [PI3K]
Conditions: spheroids with HUVEC and MSC; for IC50: curve of first compound; for viability, T/C: stronger effect = lower value
Outline: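 Stroma-containing spheroids: tumor line, pooled-donor HUVEC, hMSC. Treatments: targeted agents with PI3K inhibitors. Dosing: clinically relevant, half-log spacing, 10 microM ceiling without known Cmax. Read-out: cell viability.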

[1] = second compound 0.0316 µM, first compound 0.0316 µM
[2] = second compound 0.0316 µM, first compound 0.1 µM
[3] = second compound 0.0316 µM, first compound 0.316 µM
[4] = second compound 0.0316 µM, first compound 1 µM
[5] = second compound 0.0316 µM, first compound 3.16 µM
[6] = second compound 0.0316 µM, first compound 10 µM
[7] = second compound 0.1 µM, first compound 0.0316 µM
[8] = second compound 0.1 µM, first compound 0.1 µM
[9] = second compound 0.1 µM, first compound 0.316 µM
[10] = second compound 0.1 µM, first compound 1 µM
[11] = second compound 0.1 µM, first compound 3.16 µM
[12] = second compound 0.1 µM, first compound 10 µM
[13] = second compound 0.316 µM, first compound 0.0316 µM
[14] = second compound 0.316 µM, first compound 0.1 µM
[15] = second compound 0.316 µM, first compound 0.316 µM
[16] = second compound 0.316 µM, first compound 1 µM
[17] = second compound 0.316 µM, first compound 3.16 µM
[18] = second compound 0.316 µM, first compound 10 µM
[19] = second compound 1 µM, first compound 0.0316 µM
[20] = second compound 1 µM, first compound 0.1 µM
[21] = second compound 1 µM, first compound 0.316 µM
[22] = second compound 1 µM, first compound 1 µM
[23] = second compound 1 µM, first compound 3.16 µM
[24] = second compound 1 µM, first compound 10 µM
[25] = second compound 3.16 µM, first compound 0.0316 µM
[26] = second compound 3.16 µM, first compound 0.1 µM
[27] = second compound 3.16 µM, first compound 0.316 µM
[28] = second compound 3.16 µM, first compound 1 µM
[29] = second compound 3.16 µM, first compound 3.16 µM
[30] = second compound 3.16 µM, first compound 10 µM
[31] = second compound 10 µM, first compound 0.0316 µM
[32] = second compound 10 µM, first compound 0.1 µM
[33] = second compound 10 µM, first compound 0.316 µM
[34] = second compound 10 µM, first compound 1 µM
[35] = second compound 10 µM, first compound 3.16 µM
[36] = second compound 10 µM, first compound 10 µM
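Also: spheroids exposed to compound for 7 days before viability read.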
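For viability, T/C in this document: 100% = DMSO vehicle-treated spheroids.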

Compound: CC(Cn1ccc(-c2ccc(C#N)c(Cl)c2)n1)NC(=O)c1cc(C(C)O)[nH]n1 (centres undefined) + CC(Nc1ncnc2nc[nH]c12)c1cc2cccc(Cl)c2c(=O)n1-c1ccccc1
- IC50 (second compound 0.0316 µM): > 10000 nM
- IC50 (second compound 0.1 µM): > 10000 nM
- IC50 (second compound 0.316 µM): > 10000 nM
- IC50 (second compound 1 µM): > 10000 nM
- IC50 (second compound 3.16 µM): > 10000 nM
- IC50 (second compound 10 µM): 5120 nM
- viability, T/C [1]: 85.5%
- viability, T/C [2]: 85%
- viability, T/C [3]: 93%
- viability, T/C [4]: 70.3%
- viability, T/C [5]: 68.9%
- viability, T/C [6]: 59.1%
- viability, T/C [7]: 80.6%
- viability, T/C [8]: 105%
- viability, T/C [9]: 87.8%
- viability, T/C [10]: 77.6%
- viability, T/C [11]: 81%
- viability, T/C [12]: 62.1%
- viability, T/C [13]: 96.3%
- viability, T/C [14]: 94.9%
- viability, T/C [15]: 88.5%
- viability, T/C [16]: 91.2%
- viability, T/C [17]: 82%
- viability, T/C [18]: 66.7%
- viability, T/C [19]: 104%
- viability, T/C [20]: 93.8%
- viability, T/C [21]: 87.8%
- viability, T/C [22]: 94.9%
- viability, T/C [23]: 92%
- viability, T/C [24]: 64.7%
- viability, T/C [25]: 86.7%
- viability, T/C [26]: 93.4%
- viability, T/C [27]: 83.6%
- viability, T/C [28]: 82.8%
- viability, T/C [29]: 85%
- viability, T/C [30]: 58.9%
- viability, T/C [31]: 60.3%
- viability, T/C [32]: 59.5%
- viability, T/C [33]: 55.9%
- viability, T/C [34]: 56.2%
- viability, T/C [35]: 57.4%
- viability, T/C [36]: 40.1%

Compound: Cn1nccc1Nc1nccc(-c2ccn(C(CO)c3ccc(Cl)c(F)c3)c(=O)c2)n1 (centres undefined) + CC(Nc1ncnc2nc[nH]c12)c1cc2cccc(Cl)c2c(=O)n1-c1ccccc1
- IC50 (second compound 0.0316 µM): 544 nM
- IC50 (second compound 0.1 µM): 472 nM
- IC50 (second compound 0.316 µM): 471 nM
- IC50 (second compound 1 µM): 345 nM
- IC50 (second compound 3.16 µM): 168 nM
- IC50 (second compound 10 µM): 35.5 nM
- viability, T/C [1]: 94%
- viability, T/C [2]: 84%
- viability, T/C [3]: 62.2%
- viability, T/C [4]: 36.6%
- viability, T/C [5]: 24%
- viability, T/C [6]: 20.7%
- viability, T/C [7]: 91.1%
- viability, T/C [8]: 88.1%
- viability, T/C [9]: 54.7%
- viability, T/C [10]: 37.1%
- viability, T/C [11]: 23.6%
- viability, T/C [12]: 19.9%
- viability, T/C [13]: 104%
- viability, T/C [14]: 89.6%
- viability, T/C [15]: 56.9%
- viability, T/C [16]: 35.1%
- viability, T/C [17]: 23.1%
- viability, T/C [18]: 18.5%
- viability, T/C [19]: 98.4%
- viability, T/C [20]: 77.4%
- viability, T/C [21]: 51.4%
- viability, T/C [22]: 31.3%
- viability, T/C [23]: 21.3%
- viability, T/C [24]: 15.7%
- viability, T/C [25]: 79.3%
- viability, T/C [26]: 61.2%
- viability, T/C [27]: 36%
- viability, T/C [28]: 21.8%
- viability, T/C [29]: 14.9%
- viability, T/C [30]: 13%
- viability, T/C [31]: 51.3%
- viability, T/C [32]: 39.2%
- viability, T/C [33]: 27.9%
- viability, T/C [34]: 15%
- viability, T/C [35]: 10.6%
- viability, T/C [36]: 6.93%
